Source: patent US9878982B2, “Pyridine derivatives and anti-mycobacterial use thereof” (priority 2014, dated 2018)
In brackets after ≈: the same amount, converted by molar mass. Where two headings read alike, the source gives them in different places.

What was measured:
[1] = Hela cell cytotoxicity (CC50); conditions: human, HeLa cells (human cervical cancer cells), CC50_Hela, half of the toxic concentration
[2] = test system: Vero Cell; assay: Vero cell cytotoxicity (IC50); format: cell-based; conditions: Chlorocebus sabaeus, Vero, African green monkey kidney cells
[3] = test system: Mycobacterium smegmatis strain ATCC19420; assay: In vitro efficacy test using Mycobacterium smegmatis strain ATCC19420 (MIC); format: cell-based; conditions: Mycolicibacterium smegmatis, ATCC19420, 72 h, CA-MHB + 0.02% Tween 80, 30° C., read after 72 hours
[4] = test system: M. tuberculosis H37R; assay: microbe, parasite or virus in culture; format: cell-based, Mycobacterium tuberculosis; conditions: Mycobacterium tuberculosis, H37R; read-out: M. tuberculosis H37R LORA (MIC)
[5] = test system: M. tuberculosis H37Rv; assay: In vitro efficacy test using the H37Rv strain, Microplate Alamar Blue Assay (MABA) MIC; format: cell-based, Mycobacterium tuberculosis; conditions: for MIC: Mycobacterium tuberculosis, H37RV
[6] = aerobic, 7H9 medium, Alamar Blue, read-out: M. tuberculosis H37Rv MABA (MIC)
[7] = wild-type H37Rv strain, two values per compound, read-out: MABA MIC vs. H37Rv

SMILES: COc1ncc(-c2ccc(F)cc2)cc1C(c1ccccc1)C(O)(CCN(C)C)c1cccc2ccccc12 (centres unmarked) [Compound 91, 4-(dimethylamino)-1-(5-(4-fluorophenyl)-2-methoxypyridin-3-yl)-2-(naphthalen-1-yl)-1-phenylbutan-2-ol]
- CC50 [1]: > 64 mg/L
- IC50 [2]: > 50 mg/L
- MIC [3]: 0.0312 mg/L
- MIC [4]: 0.71 mg/L (≈ 1.36 µM)
- MIC [5, 6]: 0.34 mg/L

SMILES: COc1ncc(-c2ccccc2Cl)cc1C(c1ccccc1)C(O)(CCN(C)C)c1cccc2ccccc12 (centres unmarked) [Compound 107]
- CC50 [1]: > 64 mg/L
- IC50 [2]: > 50 mg/L
- MIC [3]: 0.5 mg/L
- MIC [4]: 3.03 mg/L (≈ 5.64 µM)
- MIC [5, 6]: 1.17 mg/L

SMILES: COc1ncc(-c2ccc(Cl)cc2)cc1C(c1ccccc1)C(O)(CCN(C)C)c1cccc2ccccc12 (centres unmarked) [Compound 115, 1-(5-(4-chlorophenyl)-2-methoxypyridin-3-yl)-4-(dimethylamino)-2-(naphthalen-1-yl)-1-phenylbutan-2-ol]
- CC50 [1]: > 64 mg/L
- IC50 [2]: > 50 mg/L
- MIC [3]: 0.0156 mg/L
- MIC [4]: 0.56 mg/L (≈ 1.04 µM)
- inhibitory activity against M. tuberculosis H37Rv, aerobic (MABA) (in words) [5]: comparable to that of the marketed anti-TB drug, Bedaquiline
- MIC [5, 6]: 0.08 mg/L
- MIC [5, 7]: 0.06 µM

SMILES: COc1ncc(-c2ccccc2Br)cc1C(c1ccccc1)C(O)(CCN(C)C)c1cccc2ccccc12 (centres unmarked) [Compound 125, 1-(5-(2-bromophenyl)-2-methoxypyridin-3-yl)-4-(dimethylamino)-2-(naphthalen-1-yl)-1-phenylbutan-2-ol]
- CC50 [1]: > 64 mg/L
- IC50 [2]: > 32 mg/L
- MIC [3]: 0.5 mg/L
- MIC [4]: 1.89 mg/L (≈ 3.25 µM)
- MIC [5, 6]: 1.84 mg/L

SMILES: COc1ncc(-c2cccc(Br)c2)cc1C(c1ccccc1)C(O)(CCN(C)C)c1cccc2ccccc12 (centres unmarked) [Compound 129, 1-(5-(3-bromophenyl)-2-methoxypyridin-3-yl)-4-(dimethylamino)-2-(naphthalen-1-yl)-1-phenylbutan-2-ol]
- CC50 [1]: > 64 mg/L
- IC50 [2]: > 32 mg/L
- MIC [3]: 0.5 mg/L
- MIC [4]: 2.57 mg/L (≈ 4.42 µM)
- MIC [5, 6]: 1.88 mg/L

SMILES: COc1ncc(-c2ccc(Br)cc2)cc1C(c1ccccc1)C(O)(CCN(C)C)c1cccc2ccccc12 (centres unmarked) [Compound 133, 1-(5-(4-bromophenyl)-2-methoxypyridin-3-yl)-4-(dimethylamino)-2-(naphthalen-1-yl)-1-phenylbutan-2-ol]
- CC50 [1]: > 64 mg/L
- IC50 [2]: > 32 mg/L
- MIC [3]: 0.0156 mg/L
- MIC [4]: 0.22 mg/L (≈ 0.378 µM)
- inhibitory activity against M. tuberculosis H37Rv, aerobic (MABA) (in words) [5]: comparable to that of the marketed anti-TB drug, Bedaquiline
- MIC [5, 6]: 0.22 mg/L
- MIC [5, 7]: 0.12 µM
- MABA MIC vs. H37Rv ([5]; wild-type H37Rv strain, two values per compound): 0.10 µM

SMILES: COc1ncc(-c2ccsc2)cc1C(c1ccccc1)C(O)(CCN(C)C)c1cccc2ccccc12 (centres unmarked) [Compound 136, 4-(dimethylamino)-1-(2-methoxy-5-(thiophen-3-yl)pyridin-3-yl)-2-(naphthalen-1-yl)-1-phenylbutan-2-ol]
- CC50 [1]: > 64 mg/L
- IC50 [2]: > 50 mg/L
- MIC [3]: 0.0312 mg/L
- MIC [4]: 0.79 mg/L (≈ 1.55 µM)
- MIC [5, 6]: 0.35 mg/L

SMILES: COc1ncc(-c2cccs2)cc1C(c1ccccc1)C(O)(CCN(C)C)c1cccc2ccccc12 (centres unmarked) [Compound 141, 4-(dimethylamino)-1-(2-methoxy-5-(thiophen-2-yl)pyridin-3-yl)-2-(naphthalen-1-yl)-1-phenylbutan-2-ol]
- CC50 [1]: > 64 mg/L
- IC50 [2]: 24.4 mg/L (≈ 47.9 µM)
- MIC [3]: ≤ 0.0625 mg/L
- MIC [4]: 1.44 mg/L (≈ 2.83 µM)
- MIC [5, 6]: 0.93 mg/L

SMILES: COc1ncc(-c2ccsn2)cc1C(c1ccccc1)C(O)(CCN(C)C)c1cccc2ccccc12 (centres unmarked) [Compound 145, 4-(dimethylamino)-1-(5-(isothiazol-3-yl)-2-methoxypyridin-3-yl)-2-(naphthalen-1-yl)-1-phenylbutan-2-ol]
- CC50 [1]: 12.7 mg/L (≈ 24.8 µM)
- IC50 [2]: 25.1 mg/L (≈ 49.2 µM)
- MIC [3]: 0.0625 mg/L
- MIC [4]: 1.57 mg/L (≈ 3.08 µM)
- MIC [5, 6]: 0.97 mg/L

SMILES: COc1ncc(-c2cccc(C#N)c2)cc1C(c1ccccc1)C(O)(CCN(C)C)c1cccc2ccccc12 (centres unmarked) [Compound 153, 3-(5-(4-(dimethylamino)-2-hydroxyl-2-(naphthalen-1-yl)-1-phenylbutyl)-6-methoxypyridin-3-yl)-benzonitrile]
- CC50 [1]: > 64 mg/L
- IC50 [2]: > 32 mg/L
- MIC [3]: 0.25 mg/L
- MIC [4]: 2.54 mg/L (≈ 4.81 µM)
- MIC [5, 6]: 0.96 mg/L

SMILES: COc1ncc(-c2ccc(C#N)cc2)cc1C(c1ccccc1)C(O)(CCN(C)C)c1cccc2ccccc12 (centres unmarked) [Compound 157, 4-(5-(4-(dimethylamino)-2-hydroxyl-2-(naphthalen-1-yl)-1-phenylbutyl)-6-methoxypyridin-3-yl)-benzonitrile]
- CC50 [1]: > 64 mg/L
- IC50 [2]: > 32 mg/L
- MIC [3]: 0.0312 mg/L
- MIC [4]: 0.77 mg/L (≈ 1.46 µM)
- MIC [5, 6]: 0.44 mg/L

SMILES: COc1ncc(-c2cscn2)cc1C(c1ccccc1)C(O)(CCN(C)C)c1cccc2ccccc12 (centres unmarked) [Compound 161, 4-(dimethylamino)-1-(2-methoxy-5-(thiazol-4-yl)pyridin-3-yl)-2-(naphthalen-1-yl)-1-phenylbutan-2-ol]
- CC50 [1]: 14.4 mg/L (≈ 28.3 µM)
- IC50 [2]: 25.1 mg/L (≈ 49.1 µM)
- MIC [3]: 0.125 mg/L
- MIC [4]: 4.24 mg/L (≈ 8.32 µM)
- MIC [5, 6]: 1.6 mg/L

SMILES: COc1ncc(-c2cnsc2)cc1C(c1ccccc1)C(O)(CCN(C)C)c1cccc2ccccc12 (centres unmarked) [Compound 165, 4-(dimethylamino)-1-(5-(isothiazol-4-yl)-2-methoxypyridin-3-yl)-2-(naphthalen-1-yl)-1-phenylbutan-2-ol]
- CC50 [1]: 28.8 mg/L (≈ 56.5 µM)
- IC50 [2]: 26.3 mg/L (≈ 51.6 µM)
- MIC [3]: 0.25 mg/L
- MIC [4]: 3.94 mg/L (≈ 7.73 µM)
- MIC [5, 6]: 1.98 mg/L

SMILES: COc1ncc(-c2nccs2)cc1C(c1ccccc1)C(O)(CCN(C)C)c1cccc2ccccc12 (centres unmarked) [Compound 169, 4-(dimethylamino)-1-(2-methoxy-5-(thiazol-2-yl)pyridin-3-yl)-2-(naphthalen-1-yl)-1-phenylbutan-2-ol]
- CC50 [1]: 19.3 mg/L (≈ 37.8 µM)
- IC50 [2]: 25.9 mg/L (≈ 50.7 µM)
- MIC [3]: 0.25 mg/L
- MIC [4]: 4.95 mg/L (≈ 9.71 µM)
- MIC [5, 6]: 1.73 mg/L

SMILES: COc1ncc(-c2cncs2)cc1C(c1ccccc1)C(O)(CCN(C)C)c1cccc2ccccc12 (centres unmarked) [Compound 171, 4-(dimethylamino)-1-(2-methoxy-5-(thiazol-5-yl)pyridin-3-yl)-2-(naphthalen-1-yl)-1-phenylbutan-2-ol]
- CC50 [1]: 14.3 mg/L (≈ 28.2 µM)
- IC50 [2]: 25.4 mg/L (≈ 49.7 µM)
- MIC [3]: 0.125 mg/L
- MIC [4]: 2.86 mg/L (≈ 5.61 µM)
- MIC [5, 6]: 1.7 mg/L

SMILES: COc1ncc(C(C)C)cc1C(c1ccccc1)C(O)(CCN(C)C)c1cccc2ccccc12 (centres unmarked) [Compound 175, 4-(dimethylamino)-1-(5-isopropyl-2-methoxypyridin-3-yl)-2-(naphthalen-1-yl)-1-phenylbutan-2-ol]
- CC50 [1]: 27.6 mg/L (≈ 59 µM)
- IC50 [2]: > 50 mg/L
- MIC [3]: 0.25 mg/L
- MIC [4]: 2.83 mg/L (≈ 6.04 µM)
- MIC [5, 6]: 1.42 mg/L

SMILES: COc1ncc(C(C)(C)C)cc1C(c1ccccc1)C(O)(CCN(C)C)c1cccc2ccccc12 (centres unmarked) [Compound 177, 1-(5-tert-butyl-2-methoxypyridin-3-yl)-4-dimethylamino-2-(naphthalen-1-yl)-1-phenylbutan-2-ol]
- CC50 [1]: > 64 mg/L
- IC50 [2]: 27.6 mg/L (≈ 57.2 µM)
- MIC [3]: 0.125 mg/L
- MIC [4]: 1.81 mg/L (≈ 3.75 µM)
- MIC [5, 6]: 1.74 mg/L

SMILES: COc1ncc(-c2ccoc2)cc1C(c1ccccc1)C(O)(CCN(C)C)c1cccc2ccccc12 (centres unmarked) [Compound 178, 4-(dimethylamino)-1-(5-(furan-3-yl)-2-methoxypyridin-3-yl)-2-(naphthalen-1-yl)-1-phenylbutan-2-ol]
- CC50 [1]: 25.8 mg/L (≈ 52.3 µM)
- IC50 [2]: 25.5 mg/L (≈ 51.8 µM)
- MIC [3]: 0.0312 mg/L
- MIC [4]: 0.88 mg/L (≈ 1.79 µM)
- MIC [5, 6]: 0.78 mg/L

SMILES: COc1ncc(-c2ccco2)cc1C(c1ccccc1)C(O)(CCN(C)C)c1cccc2ccccc12 (centres unmarked) [Compound 183, 4-(dimethylamino)-1-(5-(furan-2-yl)-2-methoxypyridin-3-yl)-2-(naphthalen-1-yl)-1-phenylbutan-2-ol]
- CC50 [1]: > 64 mg/L
- IC50 [2]: 24.5 mg/L (≈ 49.8 µM)
- MIC [3]: ≤ 0.0625 mg/L
- MIC [4]: 1.33 mg/L (≈ 2.7 µM)
- MIC [5, 6]: 0.5 mg/L

SMILES: COc1cccc(C(c2cc(-c3ccccc3)cnc2OC)C(O)(CCN(C)C)c2cc(F)cc(F)c2)c1OC (centres unmarked) [Compound 207, 2-(3,5-difluorophenyl)-1-(2,3-dimethoxyphenyl)-4-(dimethylamino)-1-(2-methoxy-5-phenylpyridin-3-yl)butan-2-ol]
- CC50 [1]: 10.3 mg/L (≈ 18.7 µM)
- IC50 [2]: 25.7 mg/L (≈ 46.8 µM)
- MIC [3]: ≤ 0.0625 mg/L
- MIC [4]: 0.99 mg/L (≈ 1.8 µM)
- MIC [5, 6]: 0.96 mg/L

SMILES: COc1cccc(C(c2cc(-c3ccccc3)cnc2OC)C(O)(CCN(C)C)c2cccc(Cl)c2)c1OC (centres unmarked) [Compound 209, 2-(3-chlorophenyl)-1-(2,3-dimethoxyphenyl)-4-(dimethylamino)-1-(2-methoxy-5-phenylpyridin-3-yl)butan-2-ol]
- CC50 [1]: 13.3 mg/L (≈ 24.3 µM)
- IC50 [2]: 27.3 mg/L (≈ 49.9 µM)
- MIC [3]: 0.0312 mg/L
- MIC [4]: 0.84 mg/L (≈ 1.54 µM)
- MIC [5, 6]: 0.89 mg/L

SMILES: COc1cccc(C(c2cc(-c3ccccc3)cnc2OC)C(O)(CCN(C)C)c2cc(Cl)cc(Cl)c2)c1OC (centres unmarked) [Compound 213, 2-(3,5-dichlorophenyl)-1-(2,3-dimethoxyphenyl)-4-(dimethylamino)-1-(2-methoxy-5-phenylpyridin-3-yl)butan-2-ol]
- CC50 [1]: > 64 mg/L
- IC50 [2]: 25.2 mg/L (≈ 43.3 µM)
- MIC [3]: ≤ 0.0625 mg/L
- MIC [4]: 0.46 mg/L (≈ 0.791 µM)
- MIC [5, 6]: 0.125 mg/L

SMILES: CCOc1ncc(-c2ccccc2)cc1C(c1ccccc1)C(O)(CCN(C)C)c1cccc2ccccc12 (centres unmarked) [Compound 217, 4-(dimethylamino)-1-(2-ethoxy-5-phenylpyridin-3-yl)-2-(naphthalen-1-yl)-1-phenylbutan-2-ol]
- CC50 [1]: > 64 mg/L
- IC50 [2]: > 32 mg/L
- MIC [3]: ≤ 0.0625 mg/L
- MIC [4]: 1.66 mg/L (≈ 3.21 µM)
- MIC [5, 6]: 0.41 mg/L

SMILES: COc1cccc(C(c2cc(-c3ccccc3)cnc2OC)C(O)(CCN(C)C)c2ccccc2)c1F (centres unmarked) [Compound 226, 4-(dimethylamino)-1-(2-fluoro-3-methoxyphenyl)-1-(2-methoxy-5-phenylpyridin-3-yl)-2-phenylbutan-2-ol]
- CC50 [1]: 13.1 mg/L (≈ 26.2 µM)
- IC50 [2]: 25.5 mg/L (≈ 50.9 µM)
- MIC [3]: 0.125 mg/L
- MIC [4]: 0.97 mg/L (≈ 1.94 µM)
- MIC [5, 6]: 0.44 mg/L
